Assay results from patent US20250186432A1, “SPLEEN TYROSINE KINASE INHIBITOR, COMPOSITION, AND METHODS OF USE” (PURDUE RESEARCH FOUNDATION, priority 2022, published 2025).
pEC50, pIC50: −log10 of the molar value. Read-outs that look alike come from different tables or passages of the source.

Legend:
Syk = Syk (Homo sapiens, UniProt P43405); assay: ADP-Glo kinase inhibition assay, Syk
[1] = Absolute oral bioavailability; details: in vivo, read-out: Absolute oral bioavailability F
VEGFR [2] = molecular target: VEGFR (Homo sapiens, UniProt P35916); assay: ADP-Glo kinase inhibition assay, VEGFR; assay type: biochemical; details: ADP-Glo
Sequence of VEGFR (Homo sapiens, UniProt P35916) (P35916 whole entry): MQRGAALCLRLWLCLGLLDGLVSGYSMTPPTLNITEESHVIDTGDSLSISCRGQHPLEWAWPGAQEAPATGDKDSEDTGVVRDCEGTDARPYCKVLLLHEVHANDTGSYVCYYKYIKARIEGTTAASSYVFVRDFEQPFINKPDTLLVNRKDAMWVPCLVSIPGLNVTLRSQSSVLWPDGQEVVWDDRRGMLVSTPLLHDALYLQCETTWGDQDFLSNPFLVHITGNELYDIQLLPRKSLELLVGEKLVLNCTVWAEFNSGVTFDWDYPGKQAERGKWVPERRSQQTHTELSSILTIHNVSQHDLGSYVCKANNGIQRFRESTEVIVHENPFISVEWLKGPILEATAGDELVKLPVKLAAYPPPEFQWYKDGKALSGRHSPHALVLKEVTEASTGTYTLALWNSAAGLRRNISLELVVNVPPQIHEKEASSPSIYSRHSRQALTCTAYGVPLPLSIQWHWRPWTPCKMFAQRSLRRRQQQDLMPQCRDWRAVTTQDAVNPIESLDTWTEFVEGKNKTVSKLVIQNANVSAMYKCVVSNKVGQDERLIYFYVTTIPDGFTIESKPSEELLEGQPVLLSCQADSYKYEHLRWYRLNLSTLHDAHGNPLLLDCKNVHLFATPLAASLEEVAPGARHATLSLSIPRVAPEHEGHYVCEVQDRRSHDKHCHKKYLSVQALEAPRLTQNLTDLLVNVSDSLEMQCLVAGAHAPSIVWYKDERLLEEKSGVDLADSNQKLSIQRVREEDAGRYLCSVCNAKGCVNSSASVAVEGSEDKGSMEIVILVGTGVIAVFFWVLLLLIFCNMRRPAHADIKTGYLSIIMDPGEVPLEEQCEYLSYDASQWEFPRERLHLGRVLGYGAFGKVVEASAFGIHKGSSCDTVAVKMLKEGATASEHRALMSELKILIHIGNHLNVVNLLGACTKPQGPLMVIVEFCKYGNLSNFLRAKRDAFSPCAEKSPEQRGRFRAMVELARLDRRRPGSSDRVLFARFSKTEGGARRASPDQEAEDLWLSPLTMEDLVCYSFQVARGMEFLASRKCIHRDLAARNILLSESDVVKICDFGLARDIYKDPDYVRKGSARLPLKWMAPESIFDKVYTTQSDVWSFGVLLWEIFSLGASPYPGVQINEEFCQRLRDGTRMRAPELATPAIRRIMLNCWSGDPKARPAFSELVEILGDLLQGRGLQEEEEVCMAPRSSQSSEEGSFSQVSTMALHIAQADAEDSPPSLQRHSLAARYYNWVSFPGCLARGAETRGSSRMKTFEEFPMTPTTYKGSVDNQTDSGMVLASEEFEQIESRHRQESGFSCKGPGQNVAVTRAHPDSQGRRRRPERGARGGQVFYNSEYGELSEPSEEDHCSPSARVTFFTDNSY

EGFR = EGFR (Homo sapiens, UniProt P00533); assay: ADP-Glo kinase inhibition assay, EGFR; assay type: biochemical; details: for pIC50: ADP-Glo
FGFR3 = FGFR3 (Homo sapiens, UniProt P22607); assay: ADP-Glo kinase inhibition assay, FGFR3
Sequence of FGFR3 (P22607 23-806): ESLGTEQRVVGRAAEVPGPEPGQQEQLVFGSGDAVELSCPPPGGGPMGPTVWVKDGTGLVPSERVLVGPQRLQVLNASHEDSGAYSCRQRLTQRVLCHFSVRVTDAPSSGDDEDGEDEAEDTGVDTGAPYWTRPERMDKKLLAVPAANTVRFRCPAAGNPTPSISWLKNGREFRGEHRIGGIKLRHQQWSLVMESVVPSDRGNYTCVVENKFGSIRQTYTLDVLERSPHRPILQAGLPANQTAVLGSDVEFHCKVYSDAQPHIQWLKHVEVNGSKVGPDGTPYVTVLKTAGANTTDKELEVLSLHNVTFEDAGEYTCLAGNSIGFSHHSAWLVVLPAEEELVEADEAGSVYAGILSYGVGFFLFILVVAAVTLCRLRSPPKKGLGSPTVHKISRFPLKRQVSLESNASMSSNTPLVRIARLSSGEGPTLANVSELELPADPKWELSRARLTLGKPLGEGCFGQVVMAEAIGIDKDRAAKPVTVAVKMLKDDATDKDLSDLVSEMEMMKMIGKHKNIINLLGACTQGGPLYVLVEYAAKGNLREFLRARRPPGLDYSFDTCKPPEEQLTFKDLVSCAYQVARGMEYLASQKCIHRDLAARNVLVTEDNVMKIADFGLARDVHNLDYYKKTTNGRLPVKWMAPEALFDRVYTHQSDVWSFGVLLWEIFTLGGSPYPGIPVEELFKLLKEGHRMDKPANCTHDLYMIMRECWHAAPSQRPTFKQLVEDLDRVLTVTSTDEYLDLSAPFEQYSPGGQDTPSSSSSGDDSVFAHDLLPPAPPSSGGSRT

IGF1R = IGF1R (Homo sapiens, UniProt P08069); assay: ADP-Glo kinase inhibition assay, IGF1R
Sequence of IGF1R (P08069 31-1367): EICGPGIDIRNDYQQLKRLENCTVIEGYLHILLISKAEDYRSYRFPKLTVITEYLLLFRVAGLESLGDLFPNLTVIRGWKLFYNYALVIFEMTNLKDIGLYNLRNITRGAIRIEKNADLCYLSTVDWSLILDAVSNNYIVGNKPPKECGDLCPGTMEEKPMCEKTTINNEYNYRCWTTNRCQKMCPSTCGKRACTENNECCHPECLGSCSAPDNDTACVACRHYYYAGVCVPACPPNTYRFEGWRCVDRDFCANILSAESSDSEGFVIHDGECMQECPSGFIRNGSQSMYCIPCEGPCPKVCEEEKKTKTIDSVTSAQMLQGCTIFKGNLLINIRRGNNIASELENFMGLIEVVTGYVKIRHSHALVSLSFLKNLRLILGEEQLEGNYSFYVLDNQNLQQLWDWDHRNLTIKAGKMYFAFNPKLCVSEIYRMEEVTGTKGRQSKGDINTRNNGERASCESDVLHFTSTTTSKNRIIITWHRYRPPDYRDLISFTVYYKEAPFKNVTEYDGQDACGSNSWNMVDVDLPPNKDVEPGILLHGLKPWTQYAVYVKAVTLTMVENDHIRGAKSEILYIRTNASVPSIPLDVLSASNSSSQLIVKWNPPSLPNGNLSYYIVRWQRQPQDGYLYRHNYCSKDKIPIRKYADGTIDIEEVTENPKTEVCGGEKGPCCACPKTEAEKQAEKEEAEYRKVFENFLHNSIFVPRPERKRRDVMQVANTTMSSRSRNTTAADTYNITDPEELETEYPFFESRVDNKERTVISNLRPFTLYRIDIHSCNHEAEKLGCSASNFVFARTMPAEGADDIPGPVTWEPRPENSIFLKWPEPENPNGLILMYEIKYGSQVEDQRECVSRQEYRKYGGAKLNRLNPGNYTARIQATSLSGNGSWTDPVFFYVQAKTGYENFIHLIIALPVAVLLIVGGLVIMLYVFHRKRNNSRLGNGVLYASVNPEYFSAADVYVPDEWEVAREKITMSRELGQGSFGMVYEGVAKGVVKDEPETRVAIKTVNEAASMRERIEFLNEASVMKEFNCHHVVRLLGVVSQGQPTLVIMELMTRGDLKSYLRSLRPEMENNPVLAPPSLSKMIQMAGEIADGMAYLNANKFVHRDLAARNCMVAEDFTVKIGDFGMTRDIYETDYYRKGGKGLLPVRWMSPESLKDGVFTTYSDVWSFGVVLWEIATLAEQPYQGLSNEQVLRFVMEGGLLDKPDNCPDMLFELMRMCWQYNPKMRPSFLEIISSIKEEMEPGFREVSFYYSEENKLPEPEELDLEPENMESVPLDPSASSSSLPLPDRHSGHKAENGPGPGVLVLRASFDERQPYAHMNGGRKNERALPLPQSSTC

LogP = assay type: physicochemical
From the text: The compound can have a CLogP value between about 2.0 and about 5.0 (e.g., between 2.0 and about 5.0, about 2.0 and 5.0, or 2.0 and 5.0). In certain embodiments, e.g., compound S1213, the compound has a CLogP value of between about 1.0 and about 2.0 (e.g., between 1.0 and about 2.0, about 1.0 and 2.0, or 1.0 and 2.0). The term “cLogP” refers to a calculated partition coefficient which in the physical sciences, is the ratio of concentrations of a compound in a mixture of the two immiscible phases at equilibrium. These coefficients are a measure of the difference in solubility of the compound in these two phases. In general, this is a measure of hydrophobicity of the compound as one phase is aqueous (traditionally water) and the other is hydrophobic (traditionally octanol). Higher values indicate greater partitioning of the compound into the hydrophobic phase and support increased hydrophobicity.

HGFR = HGFR (Homo sapiens, UniProt P08581); assay: ADP-Glo kinase inhibition assay, HGFR; assay type: biochemical; details: for pIC50: ADP-Glo
Sequence of HGFR (P08581 25-1390): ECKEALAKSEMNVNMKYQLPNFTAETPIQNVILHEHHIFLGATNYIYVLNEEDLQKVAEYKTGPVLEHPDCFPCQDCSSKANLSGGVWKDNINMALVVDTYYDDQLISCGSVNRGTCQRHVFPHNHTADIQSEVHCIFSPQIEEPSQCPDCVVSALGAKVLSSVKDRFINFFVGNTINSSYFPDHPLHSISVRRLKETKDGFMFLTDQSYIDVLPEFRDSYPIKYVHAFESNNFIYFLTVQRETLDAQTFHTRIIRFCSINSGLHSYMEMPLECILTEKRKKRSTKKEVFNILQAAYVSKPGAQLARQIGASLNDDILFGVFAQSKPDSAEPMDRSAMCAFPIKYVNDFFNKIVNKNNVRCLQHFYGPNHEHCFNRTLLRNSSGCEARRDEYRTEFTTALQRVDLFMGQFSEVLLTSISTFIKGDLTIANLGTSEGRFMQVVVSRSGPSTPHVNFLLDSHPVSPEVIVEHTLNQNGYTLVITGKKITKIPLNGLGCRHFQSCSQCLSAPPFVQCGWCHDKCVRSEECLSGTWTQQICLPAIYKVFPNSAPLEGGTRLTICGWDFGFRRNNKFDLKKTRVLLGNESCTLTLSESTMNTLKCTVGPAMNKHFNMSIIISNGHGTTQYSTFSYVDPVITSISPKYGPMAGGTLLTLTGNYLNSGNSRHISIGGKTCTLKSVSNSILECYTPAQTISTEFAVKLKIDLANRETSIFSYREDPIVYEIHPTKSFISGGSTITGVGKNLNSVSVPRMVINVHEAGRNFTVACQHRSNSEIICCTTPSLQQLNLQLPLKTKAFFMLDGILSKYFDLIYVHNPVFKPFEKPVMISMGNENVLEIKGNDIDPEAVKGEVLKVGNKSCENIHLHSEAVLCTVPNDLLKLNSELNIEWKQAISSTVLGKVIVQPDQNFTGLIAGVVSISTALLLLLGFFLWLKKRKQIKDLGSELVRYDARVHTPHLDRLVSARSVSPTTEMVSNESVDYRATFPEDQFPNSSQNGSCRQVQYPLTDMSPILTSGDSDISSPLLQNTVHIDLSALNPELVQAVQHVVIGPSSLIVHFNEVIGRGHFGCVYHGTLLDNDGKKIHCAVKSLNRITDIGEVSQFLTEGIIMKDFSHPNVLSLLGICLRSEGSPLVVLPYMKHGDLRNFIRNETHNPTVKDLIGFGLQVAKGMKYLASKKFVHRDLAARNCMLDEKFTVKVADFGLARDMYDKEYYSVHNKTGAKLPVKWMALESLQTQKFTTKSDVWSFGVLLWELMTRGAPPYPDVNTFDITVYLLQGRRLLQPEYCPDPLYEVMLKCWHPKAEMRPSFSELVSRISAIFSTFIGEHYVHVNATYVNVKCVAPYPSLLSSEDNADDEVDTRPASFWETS

[3] = system: Band 3 tyrosine phosphorylation; assay: Inhibition of Band 3 tyrosine phosphorylation (cellular potency); assay type: cell-based, human
VEGFR [4] = assay: ADP-Glo kinase inhibition assay, VEGFR; assay type: biochemical; details: selectivity ratio
[5] = Homo sapiens, read-out: Inhibition of Band 3 Tyrosine Phosphorylation EC50, pTyr
[6] = pTyr, read-out: Inhibition of Band 3 Tyrosine Phosphorylation EC50, pTyr
[7] = Homo sapiens, read-out: Inhibition of Band 3 Tyrosine Phosphorylation EC50, pTyr8
[8] = Homo sapiens, read-out: Inhibition of Band 3 Tyrosine Phosphorylation EC50, pTyr359

Compound | pIC50 (Syk) | pIC50 (VEGFR [2]) | pIC50 (EGFR) | pIC50 (FGFR3) | pIC50 (IGF1R) | pIC50 (HGFR) | also measured
Cc1cc(Nc2nc(N[C@@H]3CCOC[C@@H]3N)nnc2C(N)=O)cc2cn(C(C)(C)C)nc12 [TAS05567] |  |  |  |  |  |  | pIC50 (Syk; read-out: IC50 Syk, ADP-Glo): 9.43
COc1ccc(Nc2nc(-c3ccc4c(CCCO)cn(C)c4c3)cnc2C(N)=O)cc1OC [Compound S2053] | 6.83 | < 5.00 | 5.37 | < 5.30 | < 5.00 |  | bioavailability [1]: 8%; LogP (LogP): 2.63
Nc1cncc(-c2cn3ccnc3c(Nc3ccc(N4CCN(C5COC5)CC4)cc3)n2)n1 [Lanraplenib] |  | 6.11 | 5.37 | 4.16 | 5.61 | < 4.00 | pEC50 [3, 5]: 5.52
c1cn2cc(-c3ccc4cn[nH]c4c3)nc(Nc3ccc(N4CCOCC4)cc3)c2n1 [Entospletinib] |  | 6.61 |  | 5.00 | 6.09 |  | pEC50 [3, 6]: 5.52
CN1CCN(c2ccc(C(=O)Nc3n[nH]c4ccc(Cc5cc(F)cc(F)c5)cc34)c(NC3CCOCC3)c2)CC1 [Entrectinib] |  | 6.36 |  | 6.61 |  |  | 
COc1cc(Nc2ncc(F)c(Nc3ccc4c(n3)N(COP(=O)(O)O)C(=O)C(C)(C)O4)n2)cc(OC)c1OC [Fostamtinib] |  | 7.73 | 6.47 | 7.04 | 6.20 | 5.80 | 
Oc1cc(O)cc(/C=C/c2ccc(O)c(O)c2)c1 [Piceatannal] |  | 5.30 | 4.75 |  |  | 4.46 | pIC50 (FGFR3; read-out: IC50 FGFR3, ADP-Glo): 4.61; pIC50 (IGF1R; read-out: IC50 IGF1R, ADP-Glo): 4.67
COc1ccc(-c2cc3nccn3c(Nc3ncccc3C(N)=O)n2)cc1OC [Syk IV] |  | 7.04 |  |  |  |  | 
COc1ccc(Nc2nc(-c3ccc4c(CN5CC(O)C5)c[nH]c4c3)cnc2C(N)=O)cc1OC [Compound S1115, 3-((3,4,-methoxyphenyl)amino)-5-(3-((3-hydroxyazetidin-1-yl)methyl)-1H-indol-6-yl)pyrazine-2-carboxamide] | 8.66 | 7.12 | 6.85 |  | 6.05 | < 4.40 | bioavailability [1]: 2%; pEC50 [3, 5]: 6.65; pEC50 [3, 7]: 6.58; pEC50 [3, 8]: 5.80; LogP (LogP): 1.42
Cc1cc(Nc2nccc(C)n2)cc(-c2cnc([C@@]3(O)CC[C@H](C(=O)O)C(C)(C)C3)s2)c1 [Syk-IN-3] |  |  |  |  |  |  | pIC50 (Syk; read-out: IC50 Syk, ADP-Glo): 9.00
Cc1nn(-c2ccnc(Nc3ccc(-c4csc5c(=O)cc(N6CCOCC6)oc45)cc3)n2)cc1CN1CCC1 [SRX3207] |  |  |  |  |  |  | pIC50 (Syk; read-out: IC50 Syk, ADP-Glo): 7.97
CCS(=O)(=O)N1CCN(c2ccc(Nc3ncc(C(N)=O)c(NC4CC4)n3)cc2)CC1 [Cerdulatinib] |  |  |  |  |  |  | pIC50 (Syk; read-out: IC50 Syk, ADP-Glo): 7.49
O=C(Nc1cnn2ccc(N3CCC[C@@H]3c3cc(F)ccc3F)nc12)N1CC[C@H](O)C1 [Larotrectinib] | 4.63 | 4.71 | 5.20 | 5.70 | < 4.00 | < 4.00 | 
NC(=O)c1cnc(N[C@@H]2CCCC[C@@H]2N)nc1Nc1cccc(-n2nccn2)c1 [PRT062067] |  |  |  |  |  |  | pEC50 [3, 6]: 6.52
CCn1c(=O)c(-c2cc(NC(=O)Nc3ccccc3)c(F)cc2Br)cc2cnc(NC)cc21 [Ripretinib] | 4.88 | 9.62 | 5.00 | 7.07 | < 4.00 | 5.52 | 
COc1ccc(Nc2nc(-c3ccc4c(CN5CC(O)C5)cn(CO)c4c3)cn3ccnc23)cc1OC [Compound S970D] | 7.10 | 5.68 | 6.19 |  | < 5.30 | < 4.40 | pEC50 [3, 5]: 6.15; pEC50 [3, 7]: 6.24; LogP (LogP): 2.28
N#CCC1CCN(c2nc(Nc3ccc(N4CCC(O)CC4)cc3)c3c(=O)[nH]ncc3n2)CC1 [Gusacitinib] | 7.34 to 8.30 |  |  |  |  |  | 
COc1ccc(Nc2nc(-c3ccc4c(CN5CC(C(=O)O)C5)c[nH]c4c3)cnc2C(N)=O)cc1OC [Compound S1219] | 7.30 |  |  |  |  |  | bioavailability [1]: 1.1%; LogP (LogP): 1.54
Cc1cc(Nc2ncnc3ccc(NC4=NC(C)(C)CO4)cc23)ccc1Oc1ccn2ncnc2c1 [Tucatinib] | 5.31 | 5.71 | 7.41 | 4.18 | < 4.00 | 4.95 | 
CCc1cc2c(cc1N1CCC(N3CCOCC3)CC1)C(C)(C)c1[nH]c3cc(C#N)ccc3c1C2=O [Alectinib] | 4.43 | 6.47 |  | 5.74 | 5.99 | 5.99 | 
Cn1cc(-c2nc(N[C@@H]3CCCC[C@@H]3N)c(F)c3c2C(=O)NC3)cn1 [TAK-659] |  | 6.82 | 4.56 |  |  | 5.50 | pIC50 (FGFR3; read-out: IC50 FGFR3, ADP-Glo): 7.72
COc1cc(Nc2ncc(F)c(Nc3ccc4c(n3)NC(=O)C(C)(C)O4)n2)cc(OC)c1OC [Compound R406] |  |  |  |  |  |  | pEC50 [3, 6]: 5.30
COc1ccc(Nc2nc(-c3ccc4c(CN5CC(O)C5)c[nH]c4c3)cn3ccnc23)cc1OC [Compound S970, 1-((6-(8-((3,4-dimethoxyphenyl)amino)imidazo[1,2-a]pyrazin-6-yl)-1H-indol-3-yl)methyl)azetidin-3-ol] | 6.75 | 5.40 | 5.10 |  |  |  | Ratio of IC50 SYK/Kinases: SYK (Syk; selectivity ratio): 1; Ratio of IC50 SYK/Kinases: VEGFR3 (VEGFR [4]): 22; Ratio of IC50 SYK/Kinases: EGFR (EGFR; selectivity ratio): 44; Ratio of IC50 SYK/Kinases: HGFR (HGFR; selectivity ratio): 220; Ratio of IC50 SYK/Kinases: FGF3R (FGFR3; selectivity ratio): 55; pEC50 [3, 5]: 5.82; pEC50 [3, 7]: 5.36; pEC50 [3, 8]: 5.00; Ratio of IC50 SYK/Kinases: IGF1R (IGF1R; selectivity ratio): 55; LogP (LogP): 2.29
COc1ccc(Nc2nc(-c3ccc4c(CN5CC(N)C5)c[nH]c4c3)cnc2C(N)=O)cc1OC [Compound S1213] | 7.60 | < 5.70 | 4.60 | < 5.52 | < 4.70 | < 4.70 | bioavailability [1]: 2%; pEC50 [3, 5]: 5.82; LogP (LogP): 1.04
NC(=O)c1ncc(-c2ccc3c(CN4CC(N)C4)c[nH]c3c2)nc1Nc1cccc(-n2nccn2)c1 [Compound S1214] | 6.28 |  |  |  |  |  | 
NCCNc1ncc(C(N)=O)c(Nc2cccc(C(F)(F)F)c2)n1 [Syk II] |  | 5.38 | 4.57 |  |  | 4.16 | pIC50 (Syk; read-out: IC50 Syk, ADP-Glo): 7.15; pIC50 (FGFR3; read-out: IC50 FGFR3, ADP-Glo): 4.43; pIC50 (IGF1R; read-out: IC50 IGF1R, ADP-Glo): 4.87
NC(=O)c1nnc(N[C@@H]2CCCC[C@@H]2N)nc1Nc1cccc2cc[nH]c12 [Syk-IN-1] |  |  |  |  |  |  | pIC50 (Syk; read-out: IC50 Syk, ADP-Glo): 7.51
Cn1cc(-c2cc3c(N4CCN(c5ncc([C@@](C)(N)c6ccc(F)cc6)cn5)CC4)ncnn3c2)cn1 [Avapritinib] | 6.55 | 5.59 | 5.06 | 5.99 | < 4.00 | 4.60 | 
COc1ccc(Nc2nc(-c3ccc4c(CCCN)cn(C)c4c3)cnc2C(N)=O)cc1OC [Compound S2054] | 6.17 |  |  |  |  |  | 
